The subject of data set [1] is MOLT4. Kind of data set: MTT cytotoxicity evaluation of series 1 and 2 rhein analogues, MOLT4 (Tables 3, 4). As to conditions: for cytotoxicity against MOLT4 compared with rhein: in words.
Data set [2] concerns HeLa. Kind of data set: MTT cytotoxicity evaluation of series 1 and 2 rhein analogues, HeLa (Tables 3, 4). Type of data set: cell-based. The conditions noted are these: for potency in HeLa cells compared with rhein: in words.
Data set [3] deals with HeLa. Kind of data set: MTT cytotoxicity assay, HeLa (Table 2). The conditions noted are these: for IC50: read-out: IC50 (μM) against HeLa. The protocol:
(§1) The in vitro cytotoxicity studies of the synthesized compounds were performed in three different cell lines (HeLa, Hek, and KB). The activities of the herein described analogues were compared to that of rhein itself and doxorubicin. Due to the poor solubility of the compounds, all of the solutions used for biological testing were prepared using DMSO as solvent.

Data set [4] deals with Hek. Kind of data set: MTT cytotoxicity assay, Hek (Table 2). It is filed as cell-based. As to conditions: 48 h incubation; for IC50: read-out: IC50 (μM) against Hek. The protocol: as §1
In general terms: Tetrazolium dyes change colour on reduction, which living cells bring about.

For data set [5], the system named is KB. Kind of data set: MTT cytotoxicity assay, KB (Table 2). Type of data set: cell-based. As to conditions: 48 h incubation; for IC50: read-out: IC50 (μM) against KB. The protocol: as §1
Data set [6] relates to Cos7. Briefly: Cytotoxicity against cancer cell lines (Example 5), Cos7. It is filed as cell-based. As to conditions: Tables 5-12. As for the experimental part: (§2) All of the compounds synthesized were tested against a number of cancer cell lines: Hela KB, Cos7, Molt4, K562, EU1, and T98G. The cancer cell lines vary from leukemia cell lines (Molt4, EU, K562) to solid-state tumor cell lines (Hela, KB, Cos7) and the drug resistant cell lines (T98G).

The test system of data set [7] is MOLT4. Kind of data set: Cytotoxicity against cancer cell lines (Example 5), Molt4. It is filed as cell-based. As to conditions: Tables 5-12; read-out: IC50 Molt4. The protocol: as §2
Data set [8] deals with HeLa. Kind of data set: Cytotoxicity against cancer cell lines (Example 5), Hela. It is filed as cell-based. As to conditions: Tables 5-12. As for the experimental part: as §2
The subject of data set [9] is KB. Kind of data set: Cytotoxicity against cancer cell lines (Example 5), KB. It is filed as cell-based. As to conditions: Tables 5-12. As for the experimental part: as §2
Data set [10] deals with EU1. Kind of data set: Cytotoxicity against cancer cell lines (Example 5), EU1. Type of data set: cell-based. As to conditions: Tables 5-12. The protocol:
as §2

Data set [11] concerns T98G. Briefly: Cytotoxicity against cancer cell lines (Example 5), T98G. It is filed as cell-based. The conditions noted are these: Tables 5-12; drug resistant cell line. As for the experimental part: as §2
Data set [12] relates to K562. Kind of data set: Cytotoxicity against cancer cell lines (Example 5), K562. It is filed as cell-based. As to conditions: Tables 5-12. As for the experimental part: as §2
Where [13] appears, read: Homo sapiens, MOLT-4, read-out: IC50 (μM) against MOLT4.
[14] abbreviates: Homo sapiens, HeLa, MTT, Tables 3 and 4, read-out: IC50 (μM) against HeLa.
[15] abbreviates: read-out: IC50 (μM) against MOLT4, MTT, Tables 3 and 4.
Where [16] appears, read: MTT, Tables 3 and 4, read-out: IC50 (μM) against HeLa.

Structures are written as SMILES.

Take `O=C1c2cccc(O)c2C(=O)c2c(O)cc(-c3ccc(O)cc3)cc21` [Compound 26g, 1,8-Dihydroxy-3-(4′-hydroxyphenyl)-anthraquinone]: the results for the IC50 in data set [1] (setting [13]) and in data set [2] (setting [14]) were 21 µM and 9.9 µM, respectively. Further, the “potency in HeLa cells compared with rhein” value in [2] is listed as “moderate improvement in potency”.
In the case of `Cc1noc(C)c1-c1cc(O)c2c(c1)C(=O)c1cccc(O)c1C2=O` [Compound 26a, 1,8-Dihydroxy-3-(3′,5′-dimethyl-isoxazol-4′-yl)-anthraquinone], the half-maximal inhibitory concentration (IC50) (in general, the concentration at which inhibition is half-maximal) was 14 µM in data set [1] (setting [15]) and 16 µM in data set [2] (setting [16]). Moreover, the “potency in HeLa cells compared with rhein” value in [2] is reported as “moderate improvement in potency”.
As to `O=C(CN1CCCCC1)Nc1cc(O)c2c(c1)C(=O)c1cccc(O)c1C2=O` [Compound 9d, 1,8-Dihydroxy-3-(2′-piperidinyl-acetamido)-anthraquinone], the IC50 in data set [1] (setting [13]) was found to be 4.1 µM; in [2] (setting [14]) it was 33 µM.
Turning to `CC(C)(C)OCc1ccc(-c2cc(O)c3c(c2)C(=O)c2cccc(O)c2C3=O)cc1` [Compound 26e, 1,8-Dihydroxy-3-(4′-t-butoxymethyl-phenyl)-anthraquinone], the half-inhibitory concentration (IC50) is 22 µM in data set [1] (setting [13]) and above 100 µM in data set [2] (setting [14]).
Consider `O=C(CBr)NCCCCNC(=O)c1cc(O)c2c(c1)C(=O)c1cccc(O)c1C2=O` [Compound 18, 1,8-Dihydroxy-3-(9′-bromo-aceta-2′,7′diamido)-anthraquinone], for which, in [3] (MTT, 48 h incubation, Table 2), the “IC50 (μM) against HeLa” value is recorded as “low micro molar” and the IC50 was determined as 3 µM. Moreover, the “cytotoxicity against HeLa cells compared to rhein” value in [3] (in words) is “significant improvement”. Besides, in [4], the “IC50 (μM) against Hek” value is “low micro molar” and the half-maximal inhibitory concentration (IC50) is 1.4 µM. For the same molecule, in [5], the “IC50 (μM) against KB” value is recorded as “low micro molar” and the IC50 turned out to be 4.8 µM.
With `O=C(CBr)NCCCOCCOCCOCCCNC(=O)c1cc(O)c2c(c1)C(=O)c1cccc(O)c1C2=O` [Compound 22, 1,8-Dihydroxy-3-(18′-bromo-aceta-6′,9′,12′-trioxa-2′,16′-tridecanediamido)-anthraquinone], the IC50 came out at 7 µM in data set [3] (MTT, 48 h incubation, Table 2); 2.2 µM in data set [4]; 9 µM in data set [5].
Turning to `O=C1c2cccc(O)c2C(=O)c2c(O)cc(-c3cccs3)cc21` [Compound 26b, 1,8-Dihydroxy-3-(thiophen-2′-yl)-anthraquinone], the “cytotoxicity against MOLT4 compared with rhein” value in data set [1] is “decreased cytotoxicity”. Further, the half-inhibitory concentration (IC50) in data set [1] (setting [15]) and in data set [2] (setting [16]) was above 100 µM in each case.
Take `CN1CCN(CC(=O)Nc2cc(O)c3c(c2)C(=O)c2cccc(O)c2C3=O)CC1` [Compound 9b, 1,8-Dihydroxy-3-(2′-(4″-methylpiperazin-1″-yl)-acetamido)-anthraquinone]: the IC50 was determined as 3.1 µM in data set [1] (setting [13]) and 5.8 µM in data set [2] (setting [14]).
Regarding `COc1cccc2c1C(=O)c1c(OC)cc(N)cc1C2=O` [BW-AQ-145], the concentration for half-maximal inhibition (IC50) was above 50 µM in [6]; above 25 µM in [7]; above 50 µM in [8]; above 50 µM in [9]; above 25 µM in [10]; above 50 µM in data set [11]. In data set [12], the half-inhibitory concentration (IC50) was above 25 µM.
For `[N-]=[N+]=NC(=O)c1cc(OCc2ccccc2)c2c(c1)C(=O)c1cccc(OCc3ccccc3)c1C2=O` [BW-AQ-149], the IC50 in data set [6] is above 50 µM; in [7], above 25 µM; in data set [8], above 50 µM; in data set [9] it was above 50 µM; in [10] it was above 25 µM; in [11], above 50 µM. The same molecule showed an IC50 in data set [12] above 25 µM.
Take `C=CCOC(=O)c1cc(OCC=C)c2c(c1)C(=O)c1cccc(OCC=C)c1C2=O` [BW-AQ-152]: the IC50 in data set [6] is 12.5 µM; in [7], above 25 µM; in [8] it was 27.6 µM; in [9], 22.5 µM; in [10], above 25 µM; in [11], 29.3 µM. Moreover, in [12], the 50% inhibitory concentration (IC50) is above 25 µM.
As for `C=CC(=O)Nc1cc(OCC)c2c(c1)C(=O)c1cccc(OCC)c1C2=O` [BW-AQ-158], the IC50 in [6] is 8.42 µM; in data set [7], below 3.2 µM; in data set [8] it was 19.7 µM; in data set [9], 20.3 µM; in data set [10] it was 6 µM; in data set [11] it was 21 µM. In [12], this molecule showed a 50% inhibitory concentration (IC50) of 10.7 µM.
Turning to `O=C1c2cccc(O)c2C(=O)c2c(O)cc(-c3ccc(Sc4ccccc4)nc3)cc21` [Compound 26d, 1,8-Dihydroxy-3-(6′-phenylthio-pyridin-3′-yl)-anthraquinone], the IC50 in data set [1] (setting [15]) was 35 µM; in data set [2] (setting [16]) it was above 100 µM.
Take `COc1ccc(-c2cc(O)c3c(c2)C(=O)c2cccc(O)c2C3=O)cc1` [Compound 26f, 1,8-Dihydroxy-3-(4′-methoxyphenyl)-anthraquinone]: the IC50 is 29 µM in [1] (setting [13]); above 100 µM in data set [2] (setting [14]); 20 µM in data set [2] (Homo sapiens, HeLa, less than 50% cells killed at highest concentration, R^2 < 0.8, read-out: IC50 (μM) against HeLa, value inside parenthesis calculated by Prism 4 using sigmoidal curve fitting).
Regarding `CCOc1cccc2c1C(=O)c1c(OCC)cc(NC(=O)CO)cc1C2=O` [BW-AQ-157], the IC50 in data set [6] stood at 5 µM; in data set [7], 0.42 µM; in data set [8], 6.35 µM; in [9] it was 9.5 µM; in data set [10] it was 0.358 µM; in [11], 15.4 µM. This molecule had an IC50 in data set [12] of 1.8 µM.
In the case of `C=CCOc1cccc2c1C(=O)c1c(OCC=C)cc(NC(=O)CN=[N+]=[N-])cc1C2=O` [BW-AQ-164], the IC50 is above 50 µM in data set [6]; above 25 µM in data set [7]; above 50 µM in data set [8]; above 50 µM in data set [9]; above 25 µM in data set [10]; above 50 µM in data set [11]. Moreover, in data set [12], the IC50 is above 25 µM.
For the molecule `CCN(CC)CC(=O)Nc1cc(O)c2c(c1)C(=O)c1cccc(O)c1C2=O` [Compound 9a, 1,8-Dihydroxy-3-(2′-diethylamino-acetamido)-anthraquinone], the IC50 in [1] (setting [13]) turned out to be 3 µM; in [2] (setting [14]), 6.1 µM.
Regarding `Cc1cc(-c2cc(O)c3c(c2)C(=O)c2cccc(O)c2C3=O)ccc1N(C)C` [Compound 26c, 1,8-Dihydroxy-3-(4′-dimethylamino-3′-methylphenyl)-anthraquinone], the concentration for half-maximal inhibition (IC50) is above 100 µM in [1] (setting [13]) and 68 µM in [2] (setting [14]). Also, the “cytotoxicity against MOLT4 compared with rhein” value in data set [1] was “decreased cytotoxicity”. The “potency in HeLa cells compared with rhein” value in data set [2] is on record as “moderate improvement in potency”.
Consider `O=C(CN1CCOCC1)Nc1cc(O)c2c(c1)C(=O)c1cccc(O)c1C2=O` [Compound 9c, 1,8-dihydroxy-3-(2′-morpholino-acetamido)-anthraquinone], for which the half-inhibitory concentration (IC50) in data set [1] (setting [13]) turned out to be 25 µM; in data set [2] (setting [14]), 13 µM.
In the case of `O=C1c2cccc(O)c2C(=O)c2c(O)cc(Sc3ccccc3)cc21` [Compound 24a, 1,8-Dihydroxy-3-(phenylthio)-anthraquinone], the “potency increase compared with rhein, MOLT4” value in data set [1] was “at least 30 fold”. In addition, the IC50 in data set [1] (setting [13]) came out at 1.4 µM; in data set [2] (setting [14]), 3.4 µM. The “IC50 (μM) against MOLT4” value in data set [1] (MTT, Tables 3 and 4) is “single digit μM level”. Also, the “potency increase compared with rhein, HeLa” value in data set [2] is “at least 30 fold”. Also, the “IC50 (μM) against HeLa” value in data set [2] (MTT, Tables 3 and 4) is given as “single digit μM level”.

These data come from patent US10544090B2, “Anthraquinone analogs and methods of making and using thereof” (Georgia State University Research Foundation, Inc., priority 2012, dated 2020).
